Read-outs that look alike come from different tables or passages of the source.
Columns and labels:
Assay type in all cases: cell-based
[1] = tested on: Pseudocercoporella herpotrichoides; experiment: Plate medium fungicidal assay, wheat eye spot P.h (Experimental Example 5)
Description: (§1) In this Experimental Example, the fungicidal effects of the inventive compounds on various phytopathogenic fungi for plants and hazardous microorganism for industrial materials were examined by the methods described below. Each inventive compound was dissolved in 2 ml of dimethyl sulfoxide. 0.6 ml of this solution was added to 60 nil of a PDA medium (potato dextrose agar medium) at about 60 degrees C., which was mixed thoroughly in a 100-ml conical flask, and poured into a dish, where it was solidified, thereby obtaining a plate medium containing the inventive compound at 50 mg/L and 5 mg/L. On the other hand, a subject microorganism previously cultured on a plate medium was cut out using a cork borer whose diameter was 4 mm, and inoculated to the test compound-containing plate medium described above. […] The growth degree of the microorganism on the test compound-containing plate medium thus observed was compared with the growth degree of the microorganism in the untreated group, and % mycelial growth inhibition was calculated by the following equation. R=100(dc−dt)/dc wherein R=% mycelial extension inhibition, dc=flora diameter in untreated plate, dt=flora diameter in treated plate. The results obtained as described above were evaluated as one of the 5 grades according to the following criteria. […] Wheat eye spot (Pseudocercoporella herpotrichoides) P.h

Botritis cinerea = experiment: Plate medium fungicidal assay, gray mold B.c (Experimental Example 5)
Description: as §1, with “Gray mold (Botritis cinerea) B.c” for “Wheat eye spot (Pseudocercoporella herpotrichoides) P.h”

Rhynchosporium secalis = experiment: Plate medium fungicidal assay, barley leaf blotch R.sec (Experimental Example 5); conditions: for inhibition at 5 µg/mL / inhibition at 50 µg/mL: Rhynchosporium secalis
Description: as §1, with “Barley leaf blotch (Rhynchosporium secalis) R.sec” for “Wheat eye spot (Pseudocercoporella herpotrichoides) P.h”

Giberella fujikuroi = experiment: Plate medium fungicidal assay, rice bakanae disease G.f (Experimental Example 5)
Description: as §1, with “Rice bakanae disease (Giberella fujikuroi) G.f” for “Wheat eye spot (Pseudocercoporella herpotrichoides) P.h”

Sclerotinia sclerotiorum = experiment: Plate medium fungicidal assay, Sclerotinia rot S.s (Experimental Example 5); conditions: for inhibition at 5 µg/mL / inhibition at 50 µg/mL: Sclerotinia sclerotiorum
Description: as §1, with “Sclerotinia rot (Sclerotinia sclerotiorum) S.s” for “Wheat eye spot (Pseudocercoporella herpotrichoides) P.h”

Pyricularia oryzae = experiment: microbe, parasite or virus in culture; conditions: for inhibition at 5 µg/mL / inhibition at 50 µg/mL: Pyricularia oryzae
Fusarium graminearum = experiment: microbe, parasite or virus in culture; conditions: for inhibition at 5 µg/mL / inhibition at 50 µg/mL: Fusarium graminearum
[2] = plate medium containing compound at 5 mg/L
[3] = plate medium containing compound at 50 mg/L
[4] = plate medium, 5 mg/L, read-out: growth inhibition grade P.h
[5] = plate medium, 50 mg/L, read-out: growth inhibition grade P.h
[6] = plate medium, 5 mg/L, read-out: growth inhibition grade B.c
[7] = plate medium, 50 mg/L, read-out: growth inhibition grade B.c
[8] = plate medium, 5 mg/L, read-out: growth inhibition grade R.sec
[9] = plate medium, 50 mg/L, read-out: growth inhibition grade R.sec
[10] = plate medium, 5 mg/L, read-out: growth inhibition grade G.f
[11] = plate medium, 50 mg/L, read-out: growth inhibition grade G.f
[12] = plate medium, 5 mg/L, read-out: growth inhibition grade S.s
[13] = plate medium, 50 mg/L, read-out: growth inhibition grade S.s
[14] = read-out: growth inhibition grade P.o
[15] = read-out: growth inhibition grade F.g
[16] = plate medium containing compound at 5 mg/L, read-out: Growth inhibition grade, P.h
[17] = plate medium containing compound at 50 mg/L, read-out: Growth inhibition grade, P.h
[18] = plate medium containing compound at 5 mg/L, read-out: Growth inhibition grade, B.c
[19] = plate medium containing compound at 50 mg/L, read-out: Growth inhibition grade, B.c
[20] = plate medium containing compound at 5 mg/L, read-out: Growth inhibition grade, R.sec
[21] = plate medium containing compound at 50 mg/L, read-out: Growth inhibition grade, R.sec
[22] = plate medium containing compound at 5 mg/L, read-out: Growth inhibition grade, G.f
[23] = plate medium containing compound at 50 mg/L, read-out: Growth inhibition grade, G.f
[24] = plate medium containing compound at 5 mg/L, read-out: Growth inhibition grade, S.s
[25] = plate medium containing compound at 50 mg/L, read-out: Growth inhibition grade, S.s
[26] = read-out: Growth inhibition grade, P.o
[27] = read-out: Growth inhibition grade, F.g

Row | Structure (SMILES) | inhibition at 5 µg/mL [1, 4] [%] | inhibition at 50 µg/mL [1, 5] [%] | inhibition at 5 µg/mL (Botritis cinerea; [6]) [%] | inhibition at 50 µg/mL (Botritis cinerea; [7]) [%] | inhibition at 5 µg/mL (Rhynchosporium secalis; [8]) [%] | inhibition at 50 µg/mL (Rhynchosporium secalis; [9]) [%] | inhibition at 5 µg/mL (Giberella fujikuroi; [10]) [%] | inhibition at 50 µg/mL (Giberella fujikuroi; [11]) [%] | inhibition at 5 µg/mL (Sclerotinia sclerotiorum; [12]) [%] | inhibition at 50 µg/mL (Sclerotinia sclerotiorum; [13]) [%] | inhibition at 5 µg/mL (Pyricularia oryzae; [14]) [%] | inhibition at 50 µg/mL (Pyricularia oryzae; [14]) [%] | inhibition at 5 µg/mL (Fusarium graminearum; [15]) [%] | inhibition at 50 µg/mL (Fusarium graminearum; [15]) [%] | inhibition at 5 µg/mL [1, 16] [%] | inhibition at 50 µg/mL [1, 17] [%] | inhibition at 5 µg/mL (Botritis cinerea; [18]) [%] | inhibition at 50 µg/mL (Botritis cinerea; [19]) [%] | inhibition at 5 µg/mL (Rhynchosporium secalis; [20]) [%] | inhibition at 50 µg/mL (Rhynchosporium secalis; [21]) [%] | other results
1 | CC[C@]1(CCl)CC[C@@H](Cc2ccccc2)[C@]1(O)Cn1cncn1 (relative stereo) [Compound I-97] | – | – | – | – | – | – | – | – | – | – | – | – | – | – | – | – | – | – | – | – | Growth inhibition grade, P.h [1, 2]: 5 (% Mycerial growth inhibition of 80% or higher); Growth inhibition grade, P.h [1, 3]: 5 (% Mycerial growth inhibition of 80% or higher); Growth inhibition grade, B.c (Botritis cinerea; [2]): 5 (% Mycerial growth inhibition of 80% or higher); Growth inhibition grade, B.c (Botritis cinerea; [3]): 5 (% Mycerial growth inhibition of 80% or higher); Growth inhibition grade, R.sec (Rhynchosporium secalis; [2]): 5 (% Mycerial growth inhibition of 80% or higher); Growth inhibition grade, R.sec (Rhynchosporium secalis; [3]): 5 (% Mycerial growth inhibition of 80% or higher); Growth inhibition grade, G.f (Giberella fujikuroi; [2]): 5 (% Mycerial growth inhibition of 80% or higher); Growth inhibition grade, G.f (Giberella fujikuroi; [3]): 5 (% Mycerial growth inhibition of 80% or higher); Growth inhibition grade, S.s (Sclerotinia sclerotiorum; [2]): 5 (% Mycerial growth inhibition of 80% or higher); Growth inhibition grade, S.s (Sclerotinia sclerotiorum; [3]): 5 (% Mycerial growth inhibition of 80% or higher); Growth inhibition grade, P.o (Pyricularia oryzae; [2]): 5 (% Mycerial growth inhibition of 80% or higher); Growth inhibition grade, P.o (Pyricularia oryzae; [3]): 5 (% Mycerial growth inhibition of 80% or higher); Growth inhibition grade, F.g (Fusarium graminearum; [2]): 5 (% Mycerial growth inhibition of 80% or higher); Growth inhibition grade, F.g (Fusarium graminearum; [3]): 5 (% Mycerial growth inhibition of 80% or higher)
2 | CC(Cl)=C[C@]1(C)CC[C@@H](Cc2ccc(Cl)cc2)[C@]1(O)Cn1cncn1 (racemic) [Compound I-115, (1RS,2SR,5SR)-5-(4-chlorobenzyl)-2-(2-chloropropenyl)-2-methyl-1-(1H-1,2,4-triazol-1-ylmethyl)cyclopentanol] | > 80 | > 80 | > 80 | > 80 | > 80 | > 80 | > 80 | > 80 | > 80 | > 80 | > 80 | > 80 | > 80 | > 80 | – | – | – | – | – | – | –
3 | C[C@]1(CCl)CC[C@@H](Cc2cccc(Cl)c2)[C@]1(O)Cn1cncn1 (racemic) [Compound I-74, (1RS,2SR,5SR)-5-(3-chlorobenzyl)-2-chloromethyl-2-methyl-1-(1H-1,2,4-triazol-1-ylmethyl)cyclopentanol] | – | – | – | – | – | – | – | – | – | – | – | – | – | – | > 80 | > 80 | > 80 | > 80 | > 80 | > 80 | inhibition at 5 µg/mL (Giberella fujikuroi; [22]): > 80%; inhibition at 50 µg/mL (Giberella fujikuroi; [23]): > 80%; inhibition at 5 µg/mL (Sclerotinia sclerotiorum; [24]): > 80%; inhibition at 50 µg/mL (Sclerotinia sclerotiorum; [25]): > 80%; inhibition at 5 µg/mL (Pyricularia oryzae; [26]): > 80%; inhibition at 50 µg/mL (Pyricularia oryzae; [26]): > 80%; inhibition at 5 µg/mL (Fusarium graminearum; [27]): > 80%; inhibition at 50 µg/mL (Fusarium graminearum; [27]): > 80%
4 | C[C@]1(CCl)CC[C@@H](Cc2ccc(Cl)cc2)[C@]1(O)Cn1cncn1 (racemic) [Compound I-1, (1RS,2SR,5SR)-5-(4-chlorobenzyl)-2-chloromethyl-2-methyl-1-(1H-1,2,4-triazol-1-ylmethyl)cyclopentanol] | > 80 | > 80 | > 80 | > 80 | > 80 | > 80 | > 80 | > 80 | > 80 | > 80 | > 80 | > 80 | > 80 | > 80 | > 80 | > 80 | > 80 | > 80 | > 80 | > 80 | inhibition at 5 µg/mL (Giberella fujikuroi; [22]): > 80%; inhibition at 50 µg/mL (Giberella fujikuroi; [23]): > 80%; inhibition at 5 µg/mL (Sclerotinia sclerotiorum; [24]): > 80%; inhibition at 50 µg/mL (Sclerotinia sclerotiorum; [25]): > 80%; inhibition at 5 µg/mL (Pyricularia oryzae; [26]): > 80%; inhibition at 50 µg/mL (Pyricularia oryzae; [26]): > 80%; inhibition at 5 µg/mL (Fusarium graminearum; [27]): > 80%; inhibition at 50 µg/mL (Fusarium graminearum; [27]): > 80%
